Measured values published in patent publication US5312838A, “β-alanineamide aryl/alkylsulfide/sulfonyl-terminated amino-diol compounds for treatment of hypertension” (G. D. Searle & Co., priority 1992, dated 1994).
Where a SMILES comes first, the peptide text is derived from it. [ ]: non-standard residue; d: D form. The star is where a group is joined. Sta = CC(C)C[C@H](N)[C@@H](O)CC(=O)O; Isovaleryl = CC(C)CC(=O)*

Key:
pepsin = conditions: Umezawa et al, J. Antibiot. 1970; cited from earlier work
cathepsin D = conditions: Umezawa et al, J. Antibiot. 1970; cited from earlier work
renin = conditions: Umezawa et al, J. Antibiot. 1970; cited from earlier work
hog renin = conditions: after injection of hog renin into nephrectomized rats; Gross et al, Science 1971; cited from earlier work
human renin = target: T1, human renin (Homo sapiens, UniProt P00797); assay: Human Renin Inhibition in vitro (angiotensin I by radioimmunoassay); format: biochemical; conditions: pH 7.4, 37° C., two hours, human plasma
T1 construct: purchased National Institute for Biological Standards, London
T1 sequence (P00797 67-406): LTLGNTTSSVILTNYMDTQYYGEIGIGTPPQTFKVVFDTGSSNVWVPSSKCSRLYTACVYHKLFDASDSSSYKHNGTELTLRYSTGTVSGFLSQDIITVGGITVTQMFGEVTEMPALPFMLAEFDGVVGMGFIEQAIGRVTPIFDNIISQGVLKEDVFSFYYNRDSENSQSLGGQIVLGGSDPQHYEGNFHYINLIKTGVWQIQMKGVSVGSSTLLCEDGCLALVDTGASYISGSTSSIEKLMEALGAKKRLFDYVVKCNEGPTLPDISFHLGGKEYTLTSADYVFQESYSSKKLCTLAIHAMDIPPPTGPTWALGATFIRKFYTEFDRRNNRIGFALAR
Method: Compounds of Formula I were evaluated as inhibitors of human renin in an in vitro assay, as follows: This human renin inhibition test has been previously described in detail [Papaioannou et al., Clinical and Experimental Hypertension, A7(9), 1243-1257 (1985)]. Human renin was obtained from the National Institute for Biological Standards, London. An incubation mixture was prepared containing the following components: in a total volume of 0.25 mL: 100 mM Tris-acetate buffer at pH 7.4, 25×10^-6 Goldblatt units of renin, 0.05 mL of plasma from human volunteers taking oral contraceptives, 6.0 mM Na-EDTA, 2.4 mM phenylmethyl sulfonyl fluoride, 1.5 mM 8-hydroxyquinoline, 0.4 mg/mL bovine serum albumin (BSA), and 0.024 mg/mL neomycin sulfate. This mixture was incubated for two hours at 37° C. in the presence or absence of renin inhibitors. The produced angiotensin I was determined by radioimmunoassay (New England Nuclear kit). Test compounds to be assayed were dissolved in DMSO and diluted with 100 mM Tris-acetate buffer at pH 7.4 containing 0.5% BSA to the appropriate concentration. The final concentration of organic solvent in the reaction mixture was less than 1%. Control incubations at 37° C. were used to correct for effects of organic solvent on renin activity.

## CC(C)CC(=O)N[C@H](C(=O)N[C@H](C(=O)N[C@@H](CC(C)C)[C@@H](O)CC(=O)N[C@@H](C)C(=O)N[C@@H](CC(C)C)[C@@H](O)CC(=O)O)C(C)C)C(C)C [pepstatin] (Isovaleryl-VV[Sta]A[Sta]-OH)
pepsin
  inhibitor of pepsin: inhibitor
Cathepsin D
  inhibitor of cathepsin D: inhibitor
renin
  inhibitor of renin: inhibitor
Hog renin
  blood pressure in vivo: reduce blood pressure

## CC(C)C[C@H](O)[C@H](O)[C@H](CC1CCCCC1)NC(=O)C(C)CNC(=O)C(CSC(C)(C)C)Cc1ccccc1 (stereo partly drawn) [Example 2, N-[3-[[1S,1R*-(cyclohexylmethyl)-2S*,3R*-dihydroxy-5-methylhexyl]amino]-2S*-methyl-2-3-oxopropyl]-α-[[(1,1-dimethylethyl)thio]methyl]benzenepropanamide]
Human renin; @ 10 nM
  inhibition at 0.01 µM: 30%

## CC(C)C[C@H](O)[C@H](O)[C@H](CC1CCCCC1)NC(=O)C(C)CNC(=O)C(Cc1ccccc1)CS(=O)(=O)C(C)(C)C (stereo partly drawn) [Example 1, N-[3-[[1S,1R*-(cyclohexylmethyl)-2S*,3R*-5-methylhexyl]amino]-2S*-methyl-3-oxopropyl]-α-[[(1,1-dimethylethyl)sulfonyl]methyl]benzenepropanamide]
Human renin
  IC50: 10 nM
